Data from US20010001101A1, “Phenanthroline derivatives” (Zeneca Limited, priority 1997, published 2001).

Experiments:
[1] = system: granulation tissue in wound chamber; assay: in vivo wound chamber model; parameters: species or system rat; details: injected into chamber daily, day 7-14 treatment; for response vs control in vivo at 0.01 mg / response vs control in vivo at 0.05 mg: Rattus norvegicus, read-out: Mean Collagen content (% of Control) On Day 14
Experimental: (e) An in vivo wound chamber model involving the measurement of histological changes in granulation tissue. The test compounds were tested in rats according to the procedures generally described in Schilling et al., Surgery 46(4):702-710 (1959), Hunt et al., Am. J. Surgery 114:302-307 (1967), and Grotendorst et al., J. Clin Inves. 76:2323-2329 (1985). More specifically, stainless wire mesh cylinders were implanted subcutaneously under the back skin of rats (two chambers per animal). The compounds of the present invention were then dissolved in DMSO and injected into each chamber on a daily basis at various concentrations from either day 0-14 or day 7-14. On day 14, the chambers were collected and the granulation tissues contained within the chambers were collected for biochemical (collagen content) or histological evaluation.
Following the in vivo wound chamber model described above, fourteen of the claimed compounds tested to determine the effectiveness of the claimed compounds in inhibiting collagen deposition in the wound chamber.

[2] = system: dermal incisional wound; assay: dermal wound healing, rat incisional model; type: in vivo; details: compared to control
Experimental: FIG. 6 illustrates the tensile strength on dermal incisional wound on day 7 after oral treatment of Compound 3 and Compound 12.
FIG. 7 illustrates the tensile strength of incisional wound after local injections of Compound 12.
(§1) The effectiveness of the compounds in dermal wound healing was tested using two wound healing models—rat punch model and rat incisional model—as described above.

[3] = system: dermal punch wound; assay: dermal wound healing, rat punch model; type: in vivo; details: compared to control
Experimental: FIG. 5 illustrates wound area after treatment of Compound 3 in the dermal punch model.
as §1

## N#CC1C=Nc2c(ccc3cccnc23)C1=O (centres unmarked) [Compound 1, 3-cyano-4-oxo-3,4-dihydro-1,10-phenanthroline]
[1]; 10 μg dosage
  response vs control in vivo at 0.01 mg: 110%
[1]; 50 μg dosage
  response vs control in vivo at 0.05 mg: 112%

## O=C(O)C1C=Nc2c(c(Cl)cc3cccnc23)C1=O (centres unmarked) [Compound 2, 5-chloro-3-carboxy-4-oxo-3,4-dihydro-1,10-phenanthroline]
[1]; 10 μg dosage
  response vs control in vivo at 0.01 mg: 91.7%
[1]; 50 μg dosage
  response vs control in vivo at 0.05 mg: 82.7%

## CN(Cc1ccc(F)cc1F)C(=O)c1cnc2c3c(ccc2c1)C(=O)C(C(=O)O)C=N3 (centres unmarked) [Compound 3, 3-carboxy-8-(N-methyl-N-{2,4-difluorobenzyl}carbamoyl)-4-oxo-3,4-dihydro-1,10-phenanthroline]
[1]; 10 μg dosage
  response vs control in vivo at 0.01 mg: 108%
[1]; 50 μg dosage
  response vs control in vivo at 0.05 mg: 79.8%

## CN(Cc1ccccc1)C(=O)c1cnc2c3c(ccc2c1)C(=O)C(C#N)C=N3 (centres unmarked) [Compound 4, 3-cyano-8-(N-benzyl-N-methylcarbamoyl)-4-oxo-3,4-dihydro-1,10-phenanthroline]
[1]; 10 μg dosage
  response vs control in vivo at 0.01 mg: 81.1%
[1]; 50 μg dosage
  response vs control in vivo at 0.05 mg: 66%

## Cc1cc2cc(C(=O)N(C)Cc3ccccc3)cnc2c2c1C(=O)C(C(=O)O)C=N2 (centres unmarked) [Compound 5, 3-carboxy-8-(N-benzyl-N-methylcarbamoyl)-5-methyl-4-oxo-3,4-dihydro-1,10-phenanthroline]
[1]; 10 μg dosage
  response vs control in vivo at 0.01 mg: 99.1%
[1]; 50 μg dosage
  response vs control in vivo at 0.05 mg: 80.9%

## CCCN(CC)C(=O)c1cnc2c3c(ccc2c1)C(=O)C([N+](=O)[O-])C=N3 (centres unmarked) [Compound 6, 3-nitro-8-(N-ethyl-N-propylcarbamoyl)-4-oxo-3,4-dihydro-1,10-phenanthroline]
[1]; 10 μg dosage
  response vs control in vivo at 0.01 mg: 58.8%
[1]; 50 μg dosage
  response vs control in vivo at 0.05 mg: 51.1%

## O=C(O)C1C=Nc2c(ccc3cc(O)cnc23)C1=O (centres unmarked) [Compound 7, 3-carboxy-8-hydroxy-4-oxo-3,4-dihydro-1,10-phenanthroline]
[1]; 10 μg dosage
  response vs control in vivo at 0.01 mg: 81.9%
[1]; 50 μg dosage
  response vs control in vivo at 0.05 mg: 74.5%

## COCCOCCOC(=O)C1C=Nc2c(ccc3cccnc23)C1=O (centres unmarked) [Compound 8, 3-[2-(2-methoxyethoxy)ethoxycarbonyl]-4-oxo-3,4-dihydro-1,10-phenanthroline]
[1]; 10 μg dosage
  response vs control in vivo at 0.01 mg: 114%
[1]; 50 μg dosage
  response vs control in vivo at 0.05 mg: 92.5%
other
  melting point: 164 to 165 °C

## O=C(O)C1C=Nc2c(cc(Cl)c3cccnc23)C1=O (centres unmarked) [Compound 9, 3-carboxy-6-chloro-4-oxo-3,4-dihydro-1,10-phenanthroline]
[1]; 10 μg dosage
  response vs control in vivo at 0.01 mg: 80.3%
[1]; 50 μg dosage
  response vs control in vivo at 0.05 mg: 79.9%

## O=C1c2ccc3cc(C(=O)N4CCN(Cc5ccccc5)CC4)cnc3c2N=CC1[N+](=O)[O-] (centres unmarked) [Compound 10, 3-nitro-8-(4-benzylpiperazine-ylcarbonyl)-4-oxo-3,4-dihydro-1,10-phenanthroline]
[1]; 10 μg dosage
  Mean Collagen content (% of Control) On Day 14: 94.81 % of Control
[1]; 50 μg dosage
  Mean Collagen content (% of Control) On Day 14: 76.54 % of Control

## O=C1c2ccc3cccnc3c2N=CC1S(=O)(=O)C(F)(F)F (centres unmarked) [Compound 11, 3-trifluoromethylsulfonyl-4-oxo-3,4-dihydro-1,10-phenanthroline]
[1]; 10 μg dosage
  response vs control in vivo at 0.01 mg: 90.8%
[1]; 50 μg dosage
  response vs control in vivo at 0.05 mg: 80.8%

## O=C(OCCN1CCOCC1)C1C=Nc2c(ccc3cccnc23)C1=O (centres unmarked) [Compound 13, 3-(2-{morpholino}ethoxycarbonyl)-4-oxo-3,4-dihydro-1,10-phenanthroline]
[1]; 10 μg dosage
  response vs control in vivo at 0.01 mg: 95.5%
[1]; 50 μg dosage
  response vs control in vivo at 0.05 mg: 84.3%

## CCOC(=O)C1C=Nc2c(c(OC)cc3cccnc23)C1=O (centres unmarked) [Compound 14, 3-ethoxycarbonyl-4-oxo-5-methoxy-3,4-dihydro-1,10-phenanthroline]
[2]
  tensile strength of wound: reduced tensil strength
[1]; 10 μg dosage
  response vs control in vivo at 0.01 mg: 72.2%
[1]; 50 μg dosage
  response vs control in vivo at 0.05 mg: 70.3%
[3]
  healing time: increased healing time

## CN(Cc1ccccc1)C(=O)c1cnc2c3c(c(F)cc2c1)C(=O)C(C#N)C=N3 (centres unmarked) [Example IX, 8-(N-benzyl-N-methylcarbamoyl)-3-cyano-5-fluoro-4-oxo-3,4-dihydro-1,10-phenanthroline]
other
  melting point: 267 to 269 °C

## O=C1c2ccc3cccnc3c2N=CC1S(=O)(=O)CC(F)(F)F (centres unmarked) [Example VI, 3-(2,2,2-trifluoroethyl-sulfonyl)-4-oxo-3,4-dihydro-1,10-phenanthroline]
other
  melting point: 272 to 274 °C

## CN(Cc1ccc(F)cc1)C(=O)c1cnc2c3c(ccc2c1)C(=O)C([N+](=O)[O-])C=N3 (centres unmarked) [Example VII, 8-[N-(4-fluorobenzyl)-N-methylcarbamoyl]-3-nitro-4-oxo-3,4-dihydro-1,10-phenanthroline]
other
  melting point: 294 to 296 °C

## CCOC(=O)c1cnc2c3c(ccc2c1Cl)C(=O)C(C(C)=O)C=N3 (centres unmarked) [Example X, 3-acetyl-7-chloro-8-ethoxycarbonyl-4-oxo-3,4-dihydro-1,10-phenanthroline]
other
  melting point: 288 to 290 °C

## O=C(O)C1C=Nc2c(ccc3cc(C(=O)N4CCc5ccccc5C4)cnc23)C1=O (centres unmarked) [Example XIV, 3-carboxy-4-oxo-8-(1,2,3,4-tetrahydroisoquinolin-2-ylcarbonyl)-3,4-dihydro-1,10-phenanthroline]
other
  melting point: 171 to 182 °C

## CCOC(=O)C1C=Nc2c(ccc3c(N(C)C)c(C(=O)N(C)Cc4ccccc4)cnc23)C1=O (centres unmarked) [Example XV, 8-(N-benzyl-N-methylcarbamoyl)-7-dimethylamino-3-ethoxy-carbonyl-4-oxo-3,4-dihydro-1,10-phenanthroline]
other
  melting point: 169 to 170 °C
